Source: patent publication US6914045B2, “Glycopeptide antibiotics” (Wyeth Holdings Corporation, priority 2001, dated 2005)
In brackets after ≈: the same amount, converted by molar mass.

Key:
Test in all cases: in vitro antibacterial evaluation, MIC by broth dilution
Assay type in all cases: cell-based
[1] = system: Staphylococcus sp.; details: broth dilution, 18 hours at 35° C.
Method in brief: (§1)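 Broth dilution per NCCLS M7-A2 in Mueller-Hinton II medium, inoculum 5×10^5 CFU/mL, antibiotic range 64-0.06 μg/mL. MIC taken as lowest concentration inhibiting growth; Gram-positive panel includes recent clinical isolates resistant to methicillin, penicillin and/or vancomycin.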

[2] = system: Escherichia coli; details: 18 hours at 35° C., strain ATCC 25922
Method in brief: as §1

[3] = system: Streptococcus sp.; details: broth dilution, 18 hours at 35° C.
Method in brief: as §1

[4] = system: Enterococcus sp.; details: broth dilution, 18 hours at 35° C.
Method in brief: as §1

**Q.** For `CC(c1ccccc1)C1NC(=O)CNC(=O)C(CO)NC(=O)C(C(O)C2CNC(=N)N2C2OC(CO)C(O)C(O)C2O)NC(=O)C(C(O)C2CNC(=N)N2)NC(=O)C(Cc2ccc(OC3OC(CO)C(OC4OC5COC(CC(C)(C)C)OC5C(O)C4O)C(O)C3O)cc2)NC1=O` (stereo not drawn) [Example 110, Cyclo[glycyl-β-methylphenylalanyl-O-[4-O-[4,6-O-(3,3-dimethylbutylidene)hexopyranosyl]-hexopyranosyl]tyrosyl-3-(2-iminoimidazolidin-4-yl)seryl-3-(3-hexopyranosyl-2-iminoimidazolidin-4-yl)serylseryl]], which “MIC Coagulase Negative Staphylococcus (GC 4547)” value [1] is on record?
**A.** Its value is 1 µg/mL (≈ 0.726 µM).

**Q.** What about the “MIC Coagulase Negative Staphylococcus (GC 4548)” value [1] of the same compound?
**A.** Its value is 1 µg/mL (≈ 0.726 µM).

**Q.** What about the “MIC Coagulase Negative Staphylococcus (GC 4549)” value [1] of the same compound?
**A.** The value was 1 µg/mL (≈ 0.726 µM).

**Q.** And the “MIC Coagulase Negative Staphylococcus (GC 4551)” value [1]?
**A.** Its value is 1 µg/mL (≈ 0.726 µM).

**Q.** What about the “MIC Coagulase Negative Staphylococcus (ID-3941)” value [1] of the same compound?
**A.** The value was 1 µg/mL (≈ 0.726 µM).

**Q.** And the “MIC Staphylococcus aureus (ATCC 29213)” value [1]?
**A.** The value was 1 µg/mL (≈ 0.726 µM).

**Q.** What about the “MIC Staphylococcus aureus (GC 1131)” value [1] of the same compound?
**A.** The value was 1 µg/mL (≈ 0.726 µM).

**Q.** And the “MIC Staphylococcus aureus (GC 4541)” value [1]?
**A.** The value was 1 µg/mL (≈ 0.726 µM).

**Q.** What about the “MIC Staphylococcus aureus (GC 4542)” value [1] of the same compound?
**A.** The value was 1 µg/mL (≈ 0.726 µM).

**Q.** And the “MIC Staphylococcus aureus (GC 4544)” value [1]?
**A.** The value was 2 µg/mL (≈ 1.45 µM).

**Q.** What about the “MIC Staphylococcus aureus (GC 4545)” value [1] of the same compound?
**A.** Its value is 1 µg/mL (≈ 0.726 µM).

**Q.** What about the “MIC Staphylococcus aureus-SMITH (GC 4543)” value [1] of the same compound?
**A.** The value was 1 µg/mL (≈ 0.726 µM).

**Q.** What about the “MIC Staphylococcus haemolyticus (GC 4546)” value [1] of the same compound?
**A.** The value was 1 µg/mL (≈ 0.726 µM).

**Q.** What about the “MIC Staphylococcus aureus (GC 1131)” value ([1]; inoculum 5×10^5 CFU/mL, strain GC 1131) of the same compound?
**A.** Its value is 1 µg/mL (≈ 0.726 µM).

**Q.** What about the “MIC Staphylococcus aureus (ATCC 29213)” value ([1]; strain ATCC 29213) of the same compound?
**A.** Its value is 1 µg/mL (≈ 0.726 µM).

**Q.** What about the “MIC Staphylococcus aureus (GC 4541)” value ([1]; strain GC 4541) of the same compound?
**A.** Its value is 1 µg/mL (≈ 0.726 µM).

**Q.** What about the “MIC Staphylococcus aureus (GC 4542)” value ([1]; strain GC 4542) of the same compound?
**A.** The value was 1 µg/mL (≈ 0.726 µM).

**Q.** And the “MIC Staphylococcus aureus (GC 4544)” value ([1]; strain GC 4544)?
**A.** Its value is 2 µg/mL (≈ 1.45 µM).

**Q.** What about the “MIC Staphylococcus aureus (GC 4545)” value ([1]; strain GC 4545) of the same compound?
**A.** Its value is 1 µg/mL (≈ 0.726 µM).

**Q.** What about the “MIC Staphylococcus haemolyticus (GC 4546)” value ([1]; strain GC 4546) of the same compound?
**A.** The value was 1 µg/mL (≈ 0.726 µM).

**Q.** What about the “MIC Coagulase Negative Staphylococcus (GC 4547)” value ([1]; strain GC 4547) of the same compound?
**A.** The value was 1 µg/mL (≈ 0.726 µM).

**Q.** And the “MIC Coagulase Negative Staphylococcus (GC 4548)” value ([1]; strain GC 4548)?
**A.** The value was 1 µg/mL (≈ 0.726 µM).

**Q.** And the “MIC Coagulase Negative Staphylococcus (GC 4549)” value ([1]; strain GC 4549)?
**A.** Its value is 1 µg/mL (≈ 0.726 µM).

**Q.** What about the “MIC Coagulase Negative Staphylococcus (GC 4551)” value ([1]; strain GC 4551) of the same compound?
**A.** The value was 1 µg/mL (≈ 0.726 µM).

**Q.** What about the “MIC Coagulase Negative Staphylococcus (ID-3941)” value ([1]; strain ID-3941) of the same compound?
**A.** Its value is 1 µg/mL (≈ 0.726 µM).

**Q.** What about the “MIC Staphylococcus aureus-SMITH (GC 4543)” value ([1]; strain SMITH GC 4543) of the same compound?
**A.** Its value is 1 µg/mL (≈ 0.726 µM).

**Q.** What about the “MIC Escherichia coli (ATCC 25922)” value [2] of the same compound?
**A.** Its value is 64 µg/mL (≈ 46.5 µM).

**Q.** And the “MIC Streptococcus agalactiae (GC 4564)” value ([3]; Streptococcus agalactiae (GC 4564))?
**A.** The value was under 0.5 µg/mL.

**Q.** And the “MIC Streptococcus pneumoniae (GC 4565)” value ([3]; Streptococcus pneumoniae (GC 4565))?
**A.** The value was under 0.5 µg/mL.

**Q.** What about the “MIC Streptococcus pyogenes (ID-3187)” value ([3]; Streptococcus pyogenes (ID-3187)) of the same compound?
**A.** Its value is under 0.5 µg/mL.

**Q.** What about the “MIC Streptococcus agalactiae (GC 4564)” value ([3]; strain GC 4564) of the same compound?
**A.** Its value is under 0.5 µg/mL.

**Q.** What about the “MIC Streptococcus pneumoniae (GC 4565)” value ([3]; strain GC 4565) of the same compound?
**A.** The value was under 0.5 µg/mL.

**Q.** What about the “MIC Streptococcus pyogenes (ID-3187)” value ([3]; strain ID-3187) of the same compound?
**A.** The value was under 0.5 µg/mL.

**Q.** And the “MIC Enterococcus avium (GC 4558)” value ([4]; Enterococcus avium (GC 4558))?
**A.** The value was 4 µg/mL (≈ 2.9 µM).

**Q.** What about the “MIC Enterococcus faecalis (ATCC 29212)” value ([4]; Enterococcus faecalis (ATCC 29212)) of the same compound?
**A.** The value was 4 µg/mL (≈ 2.9 µM).

**Q.** And the “MIC Enterococcus faecalis (GC 2242)” value ([4]; Enterococcus faecalis (GC 2242))?
**A.** Its value is 2 µg/mL (≈ 1.45 µM).

**Q.** And the “MIC Enterococcus faecalis (GC 4552)” value ([4]; Enterococcus faecalis (GC 4552))?
**A.** Its value is 4 µg/mL (≈ 2.9 µM).

**Q.** And the “MIC Enterococcus faecalis (GC 4553)” value ([4]; Enterococcus faecalis (GC 4553))?
**A.** The value was 4 µg/mL (≈ 2.9 µM).

**Q.** And the “MIC Enterococcus faecalis (GC 4554)” value ([4]; Enterococcus faecalis (GC 4554))?
**A.** Its value is 2 µg/mL (≈ 1.45 µM).

**Q.** What about the “MIC Enterococcus faecium (GC 2243)” value ([4]; Enterococcus faecium (GC 2243)) of the same compound?
**A.** Its value is 4 µg/mL (≈ 2.9 µM).

**Q.** And the “MIC Enterococcus faecium (GC 4556)” value ([4]; Enterococcus faecium (GC 4556))?
**A.** The value was 2 µg/mL (≈ 1.45 µM).

**Q.** What about the “MIC Enterococcus faecium (GC 4557)” value ([4]; Enterococcus faecium (GC 4557)) of the same compound?
**A.** Its value is 2 µg/mL (≈ 1.45 µM).

**Q.** What about the “MIC Enterococcus faecalis (ATCC 29212)” value ([4]; strain ATCC 29212) of the same compound?
**A.** Its value is 4 µg/mL (≈ 2.9 µM).

**Q.** What about the “MIC Enterococcus faecalis (GC 2242)” value ([4]; strain GC 2242) of the same compound?
**A.** Its value is 2 µg/mL (≈ 1.45 µM).

**Q.** And the “MIC Enterococcus faecium (GC 2243)” value ([4]; strain GC 2243)?
**A.** The value was 4 µg/mL (≈ 2.9 µM).

**Q.** And the “MIC Enterococcus faecalis (GC 4552)” value ([4]; strain GC 4552)?
**A.** Its value is 4 µg/mL (≈ 2.9 µM).

**Q.** What about the “MIC Enterococcus faecalis (GC 4553)” value ([4]; strain GC 4553) of the same compound?
**A.** Its value is 4 µg/mL (≈ 2.9 µM).

**Q.** And the “MIC Enterococcus faecalis (GC 4554)” value ([4]; strain GC 4554)?
**A.** The value was 2 µg/mL (≈ 1.45 µM).

**Q.** And the “MIC Enterococcus faecium (GC 4556)” value ([4]; strain GC 4556)?
**A.** Its value is 2 µg/mL (≈ 1.45 µM).

**Q.** What about the “MIC Enterococcus faecium (GC 4557)” value ([4]; strain GC 4557) of the same compound?
**A.** Its value is 2 µg/mL (≈ 1.45 µM).

**Q.** What about the “MIC Enterococcus avium (GC 4558)” value ([4]; strain GC 4558) of the same compound?
**A.** The value was 4 µg/mL (≈ 2.9 µM).
